Results reported in patent EP3575287A1, “INHIBITORS OF N-ACYLPHOSPHATIDYLETHANOLAMINE PHOSPHOLIPASE D (NAPE-PLD)” (Universiteit Leiden, priority 2018, dated 2019).

Molecular target: T1, human NAPE-PLD (Homo sapiens, UniProt Q6IQ20)
T1 construct: Full length human cDNA NAPE-PLD was obtained from Natsuo Ueda; made in house; host or cells: HEK293T cells, transient transfection (pcDNA3.1); membrane fraction used
Assay: In vitro NAPE-PLD activity assay
Type: biochemical
Settings: membrane protein fraction of HEK293T cells overexpressing human NAPE-PLD; substrate PED6 1 µM; 30 minutes preincubation at 37 °C
Protocol: Full length human cDNA NAPE-PLD was obtained from Natsuo Ueda^1 and cloned into mammalian expression vector pcDNA3.1, containing a C-terminal Flag-tag and genes for ampicillin and neomycin resistance. All plasmids were grown in XL-10 Z-competent cells and prepped (Maxi Prep, Qiagen). Sequence analysis for the confirmation of the sequences was performed at the Leiden Genome Technology Centre.
HEK293T were cultured at 37 °C and 7% CO2 in DMEM (Sigma Aldrich, D6546) with glutamax, penicillin (100 µg/ml), streptomycin (100 µg/ml) and 10% New Born Calf Serum iron supplemented (Hyclone SH30072.03). Cells were passaged twice a week to appropriate confluence.
24 hours before transfection 10^7 cells are seeded on a 15 cm dish. Two hours before transfection medium is refreshed, low volume. Transfection is performed with PEI in a ratio of 3:1 with human NAPE-PLD or Mock pcDNA3.1 Neo, 20 µg per dish. Medium is refreshed after 24 hours and cells are harvested after 72 hours.
Cell pellets are re-suspended in lysis buffer: 20 mM Hepes, 2 mM DTT, 0.25 M sucrose, 1 mM MgCl2, 2.5 U/ml benzonase and incubated 30 minutes on ice. The cytosolic fraction (supernatant) is separated from the membranes by ultra-centrifugation (32000 rpm for 30 minutes 100,000g). The pellet is resuspended in storage buffer: 20 mM Hepes, 2 mM DTT (membrane fraction). All samples are stored at -80°C. Enzyme concentrations are determined using a Bradford assay.
The NAPE-PLD activity assay is based on a previously reported method with small alterations.^2 The membrane protein fraction from transient overexpression of human NAPE-PLD in HEK293T cells was diluted to 0.4 mg/ml in assay buffer: 50 mM Tris-HCl (pH 7.5), 0.02% Triton X-100, 150 mM NaCl. The substrate PED6 (Invitrogen) 1 mM stock was consecutively diluted in DMSO (10x) and in assay buffer (10x) to make a 10 µM working solution. […] The assay is performed in a dark Greiner 96 wells plate, end volume 100 µl. The compound or DMSO is incubated with membrane protein lysate (final concentration 0.04 mg/ml) for 30 minutes at 37 °C. […] Mock lysate with DMSO is used for background substraction. IC50 curves are generated used Graphpad Prism v6.

T1 sequence (Q6IQ20 whole entry): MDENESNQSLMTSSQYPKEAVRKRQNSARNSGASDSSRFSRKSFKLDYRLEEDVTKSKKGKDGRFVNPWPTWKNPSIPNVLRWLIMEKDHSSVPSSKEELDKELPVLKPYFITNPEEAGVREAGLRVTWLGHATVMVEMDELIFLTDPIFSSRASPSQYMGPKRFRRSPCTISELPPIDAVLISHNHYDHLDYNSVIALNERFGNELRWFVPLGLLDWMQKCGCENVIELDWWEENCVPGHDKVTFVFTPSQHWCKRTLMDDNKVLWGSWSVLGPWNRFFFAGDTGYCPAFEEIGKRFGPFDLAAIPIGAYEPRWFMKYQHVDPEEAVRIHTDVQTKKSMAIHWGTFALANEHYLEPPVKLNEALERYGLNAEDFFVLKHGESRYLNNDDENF

Compound | IC50 [nM]
O=C(NCC1CC1)c1cc(N2CC[C@H](O)C2)nc(N2CCC[C@H](c3ccccc3)C2)n1 [Example 41, N-(cyclopropylmethyl)-6-((S)-3-hydroxypyrrolidin-1-yl)-2-((R)-3-phenylpiperidin-1-yl)pyrimidine-4-carboxamide] | 251
C#CCNC(=O)c1cc(N2CCOCC2)nc(N(C)CCc2ccccc2)n1 [Example 8, 2-(methyl(phenethyl)amino)-6-morpholino-N-(prop-2-yn-1-yl)pyrimidine-4-carboxamide] | 912
CN(CCc1ccccc1)c1nc(C(=O)NCC2CC2)cc(N2CCC(c3ccccc3)C2)n1 (stereo not shown) [Example 29, N-(cyclopropylmethyl)-2-(methyl(phenethyl)amino)-6-(3-phenylpyrrolidin-1-yl)pyrimidine-4-carboxamide] | 1410
CN(C)c1cc(C(=O)NCC2CC2)nc(N(C)CCc2ccccc2)n1 [Example 76, N-(cyclopropylmethyl)-6-(dimethylamino)-2-(methyl(phenethyl)amino)pyrimidine-4-carboxamide] | 288
CN(CCc1ccccc1)c1nc(Oc2ccccc2)cc(C(=O)NCC2CC2)n1 [Example 87, N-(cyclopropylmethyl)-2-(methyl(phenethyl)amino)-6-phenoxypyrimidine-4-carboxamide] | 11200
CN(CCc1ccccc1)c1nc(C(=O)NCC2CC2)cc(-n2cccn2)n1 [Example 24, N-(cyclopropylmethyl)-2-(methyl(phenethyl)amino)-6-(1H-pyrazol-1-yl)pyrimidine-4-carboxamide] | 1200
CN(CCc1ccccn1)c1nc(C(=O)NCC2CC2)cc(N2CCOCC2)n1 [Example 84, N-(cyclopropylmethyl)-2-(methyl(2-(pyridin-2-yl)ethyl)amino)-6-morpholinopyrimidine-4-carboxamide] | 12900
CN(CCc1ccccc1)c1nc(C(=O)NCCO)cc(N2CCOCC2)n1 [Example 36, N-(2-hydroxyethyl)-2-(methyl(phenethyl)amino)-6-morpholinopyrimidine-4-carboxamide] | 5010
CN(CCc1ccc(Cl)cc1)c1nc(C(=O)NCC2CC2)cc(N2CCOCC2)n1 [Example 57, 2-((4-chlorophenethyl)(methyl)amino)-N-(cyclopropylmethyl)-6-morphol inopyrimidine-4-carboxamide] | 6310
CN(CCc1ccccc1)c1nc(C(=O)NCC2CC2)cc(N2CCSCC2)n1 [Example 5, N-(cyclopropylmethyl)-2-(methyl(phenethyl)amino)-6-thiomorpholinopyrimidine-4-carboxamide] | 2630

Continued by falling IC50, values first:

IC50 [nM] | Compound
7080 | CC(C)CNC(=O)c1cc(N2CCOCC2)nc(N(C)CCc2ccccc2)n1 [Example 6, N-isobutyl-2-(methyl(phenethyl)amino)-6-morpholinopyrimidine-4-carboxamide]
4070 | CN(CCc1ccccc1)c1cc(C(=O)NCC2CC2)nc(N2CCOCC2)n1 [Example 55, N-(cyclopropylmethyl)-6-(methyl(phenethyl)amino)-2-morpholinopyrimidine-4-carboxamide]
2750 | O=C(NCC1CC1)c1cc(N2CCOCC2)nc(NCCc2ccccc2)n1 [Example 47, N-(cyclopropylmethyl)-6-morpholino-2-(phenethylamino)pyrimidine-4-carboxamide]
1170 | CN(CCc1ccccc1)c1nc(C(=O)NCC2CC2)cc(N2CCC(F)(F)C2)n1 [Example 31, N-(cyclopropylmethyl)-6-(3,3-difluoropyrrolidin-1-yl)-2-(methyl(phenethyl)amino)pyrimidine-4-carboxamide]
851 | CNc1cc(C(=O)NCC2CC2)nc(N(C)CCc2ccccc2)n1 [Example 21, N-(cyclopropylmethyl)-2-(methyl(phenethyl)amino)-6-(methylamino)pyrimidine-4-carboxamide]
741 | O=C(NCC1CC1)c1cc(N2CCOCC2)nc(N2CCCCC2Cc2ccccc2)n1 (stereo not shown) [Example 54, 2-(2-benzylpiperidin-1-yl)-N-(cyclopropylmethyl)-6-morpholinopyrimidine-4-carboxamide]
427 | CN(CCc1ccccc1)c1nc(C(=O)NCC2CC2)cc(N2CCC2)n1 [Example 25, N-(cyclopropylmethyl)-2-(methyl(phenethyl)amino)-6-(azetidin-1-yl)pyrimidine-4-carboxamide]
324 | O=C(NCC1CC1)c1cc(N2CC[C@@H](O)C2)nc(N2CCC[C@H](c3ccccc3)C2)n1 [Example 42, N-(cyclopropylmethyl)-6-((R)-3-hydroxypyrrolidin-1-yl)-2-((R)-3-phenylpiperidin-1-yl)pyrimidine-4-carboxamide]
72.4 | O=C(NCC1CC1)c1cc(N2CC[C@H](O)C2)nc(N2CCC[C@@H](c3ccccc3)C2)n1 [Example 40, N-(cyclopropylmethyl)-6-((S)-3-hydroxypyrrolidin-1-yl)-2-((S)-3-phenylpiperidin-1-yl)pyrimidine-4-carboxamide]
